In the NIST ThermoML archive (doi:10.1016/j.jct.2017.11.003):
± gives the expanded uncertainty stated by the source.

Test: xn = mol fraction of the nth substance listed
Details: 100 kPa, Liquid; for speed of sound: Frequency=2 MHz, Linear variable-path acoustic interferometer; for mass density: Vibrating tube method

CCCCCCCCCO [nonan-1-ol] + ClCCCl
Details	mass density, 293.15 K [kg/m3]	mass density, 298.15 K [kg/m3]	mass density, 303.15 K [kg/m3]	mass density, 308.15 K [kg/m3]	speed of sound, 293.15 K [m/s]	speed of sound, 298.15 K [m/s]	speed of sound, 303.15 K [m/s]	speed of sound, 308.15 K [m/s]
x2 = 0	828 ± 4	824 ± 4	821 ± 4	818 ± 4	1380.5 ± 4	1364.7 ± 4	1348.1 ± 4	1330.5 ± 4
x2 = 0.0922	845 ± 4	841 ± 4	838 ± 4	834 ± 4	1357.5 ± 4	1341.4 ± 4	1329.7 ± 4	1305.2 ± 4
x2 = 0.2067	869 ± 4	866 ± 4	862 ± 4	858 ± 4	1332.2 ± 4	1315.5 ± 4	1301.2 ± 4	1277.5 ± 4
x2 = 0.2984	892 ± 4	888 ± 4	884 ± 4	880 ± 4	1313.7 ± 4	1296.8 ± 4	1280.6 ± 4	1257.8 ± 4
x2 = 0.406	922 ± 4	918 ± 4	914 ± 4	909 ± 4	1293.1 ± 4	1275.5 ± 4	1258 ± 4	1235 ± 3.9
x2 = 0.4896	950 ± 4	946 ± 4	941 ± 4	936 ± 4	1277.3 ± 4	1260.3 ± 3.9	1242.2 ± 3.9	1219 ± 3.9
x2 = 0.6039	994 ± 4	989 ± 4	984 ± 4	979 ± 4	1258.2 ± 3.9	1240.6 ± 3.9	1221.4 ± 3.9	1199 ± 3.9
x2 = 0.6928	1035 ± 4	1030 ± 4	1025 ± 4	1019 ± 4	1243.5 ± 3.9	1226.4 ± 3.9	1206.5 ± 3.9	1184.8 ± 3.9
x2 = 0.8087	1101 ± 4	1095 ± 4	1089 ± 4	1083 ± 4	1227.5 ± 3.9	1210.5 ± 3.9	1190 ± 3.9	1169 ± 3.9
x2 = 0.9063	1170 ± 4	1163 ± 4	1157 ± 4	1150 ± 4	1216.7 ± 3.9	1199 ± 3.9	1179.2 ± 3.9	1159.9 ± 3.9

Cc1ccccc1Cl [2-chlorotoluene] + CCCCCCCCCO
Details	mass density, 293.15 K [kg/m3]	mass density, 298.15 K [kg/m3]	mass density, 303.15 K [kg/m3]	mass density, 308.15 K [kg/m3]	speed of sound, 293.15 K [m/s]	speed of sound, 298.15 K [m/s]	speed of sound, 303.15 K [m/s]	speed of sound, 308.15 K [m/s]
x1 = 0.0846	843 ± 4	840 ± 4	836 ± 4	832 ± 4	1375.9 ± 4	1360.1 ± 4	1348.7 ± 4	1325.2 ± 4
x1 = 0.1974	864 ± 4	861 ± 4	857 ± 4	853 ± 4	1367.7 ± 4	1351.5 ± 4	1339.2 ± 4	1315.5 ± 4
x1 = 0.2911	883 ± 4	880 ± 4	876 ± 4	872 ± 4	1359.7 ± 4	1342.9 ± 4	1329.6 ± 4	1305.8 ± 4
x1 = 0.3964	906 ± 4	902 ± 4	898 ± 4	894 ± 4	1349.9 ± 4	1331.9 ± 4	1318.6 ± 4	1294 ± 4
x1 = 0.4896	928 ± 4	924 ± 4	920 ± 4	915 ± 4	1341.3 ± 4	1322.3 ± 4	1308.2 ± 4	1284 ± 4
x1 = 0.5943	954 ± 4	950 ± 4	946 ± 4	941 ± 4	1331.5 ± 4	1312.2 ± 4	1298 ± 4	1273.4 ± 4
x1 = 0.6918	981 ± 4	976 ± 4	972 ± 4	967 ± 4	1324 ± 4	1304.4 ± 4	1290 ± 4	1265.8 ± 4
x1 = 0.7948	1011 ± 4	1007 ± 4	1002 ± 4	997 ± 4	1318 ± 4	1298.5 ± 4	1284 ± 4	1260.8 ± 4
x1 = 0.898	1045 ± 4	1040 ± 4	1036 ± 4	1031 ± 4	1315.2 ± 4	1297 ± 4	1280.7 ± 4	1259.9 ± 4
x1 = 1	1082 ± 4	1077 ± 4	1073 ± 4	1068 ± 4	1317 ± 4	1299.7 ± 4	1283.9 ± 4	1265.8 ± 4
